The source of these data is patent publication US11906523B2, “Signaling conjugates and methods of use” (VENTANA MEDICAL SYSTEMS, INC., priority 2012, dated 2024).

The nature of data set [1]: UV-Vis spectra of fast red and fast blue. Particulars: ethyl acetate solutions, FIG. 8(B). It counts as physicochemical. From the text: While providing a range of new colors for the recognition of targets within biological samples is useful alone, the presently disclosed signaling conjugates are particularly useful in multiplexed assays, as well as assays using translocation probes. FIG. 8(A) is a photomicrograph of a dual stain of two gene probes on section of lung tissue testing for ALK rearrangements associated with non-small cell lung cancer. FIG. 8(B) illustrates UV-Vis spectra of fast red and fast blue in ethyl acetate solutions. The 3′ probe was detected using fast red and the 5′ probe was detected using fast blue. FIGS. 9(A) and 9(B) illustrate the traces of FIG. 8(B) separately. […] Comparing this range to the color wheel, the expected color corresponding to the spectral absorption characteristic would be either red or orange. The range of absorption is so large it essentially covers all of those wavelengths one would expect to result in a red or an orange color. […] Again, referring to the color wheel in FIG. 6(A), the absorption from 525-625 nm covers nearly half of the color wheel with blue, indigo, and violet being complementary.

Data set [2] can be described thus: UV-Vis absorbance spectra of signaling conjugates and chromophores. The class given is physicochemical.
From the text: The wavelength at which the maximum fraction of light is absorbed by a substance is referred to as λmax. Because this wavelength is absorbed to the greatest extent, it is typically referred to as the absorbance wavelength. […] While λmax designates the wavelength of maximum absorption, the FWHM designates the breadth of the spectral absorbance.
Trace A corresponds to the signaling conjugate used for FIG. 15(A) and trace B corresponds to the signaling conjugated used for FIG. 15(B); note that each signaling conjugate was analyzed with spectrometry in solution prior to staining and on the slide subsequent to having detected the HER2 (the dashed traces representing the spectra obtained on the tissue).
The mark [3] stands for this setting: absorption spectrum of signaling conjugate.

As to Fast blue, the “strong absorption wavelength range” value in data set [1] is on record as 525-625 nm.

For the compound `O=C([O-])C1=NN(c2ccc(S(=O)(=O)[O-])cc2)C(=O)C1N=Nc1ccc(S(=O)(=O)[O-])cc1.[Na+].[Na+].[Na+]` (stereo not shown) [Tartrazine], in data set [2] (diazo chromophore moiety itself), the λmax result was “about 427 nm”.

With `CN(C)c1ccc2c(-c3ccc(C(=O)NCCc4ccc(O)cc4)cc3C(=O)[O-])c3ccc(N(C)C)cc3[o+]c2c1` [5-TAMRA-tyramide conjugate], in data set [2] (setting [3]), the “full width of the peak at the half maximum absorbance (FWHM)” value is “approximately 40 nm” and the λmax is 552 nm.
